Data taken from patent US20260356830A1, “COMPOUNDS FOR MODULATING RET PROTEIN” (Bristol-Myers Squibb Company, priority 2022, published 2026).

Biological target: T1, CCDC6-RET (Homo sapiens, UniProt P07949+Q16204+Q96SW2)
T1 construct: CCDC6 (natural N-terminal fusion partner, UniProt Q16204); endogenous in cells; host or cells: TPC-1 (parental, papillary thyroid carcinoma)
Assay: Cellular RET degradation, AlphaLISA, TPC-1 cell line
Assay type: cell-based
Conditions: for Dmax: TPC1, human, 24 h, read-out: Cell Density TPC-1/CCDC6-RET Ymax %; for DC50: read-out: Cell Density TPC-1/CCDC6-RET DC50, half-maximal degradation concentration, TPC-1 (CCDC6-RET), 24 hrs
Procedure, shortened: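 TPC-1 papillary thyroid carcinoma cells (endogenous CCDC6-RET) in DMEM with 2% FBS, compound-treated 24 h at 37 °C. RET in lysates quantified by AlphaLISA luminescence, normalized to media-only and DMSO wells; DC50 and maximal degradation from 4-parameter logistic fit.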

T1 sequence (Q16204+P07949 fused): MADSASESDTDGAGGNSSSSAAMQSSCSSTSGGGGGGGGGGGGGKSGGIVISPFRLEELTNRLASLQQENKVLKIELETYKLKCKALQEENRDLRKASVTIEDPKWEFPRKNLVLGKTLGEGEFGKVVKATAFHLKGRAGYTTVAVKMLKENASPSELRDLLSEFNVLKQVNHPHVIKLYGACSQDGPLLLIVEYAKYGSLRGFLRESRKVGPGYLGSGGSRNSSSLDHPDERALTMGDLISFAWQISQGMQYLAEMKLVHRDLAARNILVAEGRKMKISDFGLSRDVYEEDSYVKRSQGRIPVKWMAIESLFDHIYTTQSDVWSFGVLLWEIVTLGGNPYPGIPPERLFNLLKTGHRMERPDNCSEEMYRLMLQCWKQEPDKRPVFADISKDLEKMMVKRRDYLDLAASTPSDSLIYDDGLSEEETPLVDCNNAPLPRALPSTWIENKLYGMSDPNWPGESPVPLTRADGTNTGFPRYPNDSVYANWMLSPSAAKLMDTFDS
T1 sequence (Q96SW2 whole entry, the tested form may be a part): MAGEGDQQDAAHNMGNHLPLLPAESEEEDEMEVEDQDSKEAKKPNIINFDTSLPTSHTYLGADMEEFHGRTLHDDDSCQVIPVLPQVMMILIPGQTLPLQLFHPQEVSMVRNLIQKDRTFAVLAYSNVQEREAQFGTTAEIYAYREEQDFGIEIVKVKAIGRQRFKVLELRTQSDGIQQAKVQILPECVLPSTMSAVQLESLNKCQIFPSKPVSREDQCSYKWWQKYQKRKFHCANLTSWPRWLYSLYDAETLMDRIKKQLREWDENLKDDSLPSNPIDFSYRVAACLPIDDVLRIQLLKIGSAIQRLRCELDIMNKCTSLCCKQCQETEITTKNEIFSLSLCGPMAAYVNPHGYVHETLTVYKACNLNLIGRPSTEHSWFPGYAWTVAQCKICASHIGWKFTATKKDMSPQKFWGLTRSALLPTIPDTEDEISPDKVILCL
T1 sequence (Q16531 whole entry partner, the tested form may be a part): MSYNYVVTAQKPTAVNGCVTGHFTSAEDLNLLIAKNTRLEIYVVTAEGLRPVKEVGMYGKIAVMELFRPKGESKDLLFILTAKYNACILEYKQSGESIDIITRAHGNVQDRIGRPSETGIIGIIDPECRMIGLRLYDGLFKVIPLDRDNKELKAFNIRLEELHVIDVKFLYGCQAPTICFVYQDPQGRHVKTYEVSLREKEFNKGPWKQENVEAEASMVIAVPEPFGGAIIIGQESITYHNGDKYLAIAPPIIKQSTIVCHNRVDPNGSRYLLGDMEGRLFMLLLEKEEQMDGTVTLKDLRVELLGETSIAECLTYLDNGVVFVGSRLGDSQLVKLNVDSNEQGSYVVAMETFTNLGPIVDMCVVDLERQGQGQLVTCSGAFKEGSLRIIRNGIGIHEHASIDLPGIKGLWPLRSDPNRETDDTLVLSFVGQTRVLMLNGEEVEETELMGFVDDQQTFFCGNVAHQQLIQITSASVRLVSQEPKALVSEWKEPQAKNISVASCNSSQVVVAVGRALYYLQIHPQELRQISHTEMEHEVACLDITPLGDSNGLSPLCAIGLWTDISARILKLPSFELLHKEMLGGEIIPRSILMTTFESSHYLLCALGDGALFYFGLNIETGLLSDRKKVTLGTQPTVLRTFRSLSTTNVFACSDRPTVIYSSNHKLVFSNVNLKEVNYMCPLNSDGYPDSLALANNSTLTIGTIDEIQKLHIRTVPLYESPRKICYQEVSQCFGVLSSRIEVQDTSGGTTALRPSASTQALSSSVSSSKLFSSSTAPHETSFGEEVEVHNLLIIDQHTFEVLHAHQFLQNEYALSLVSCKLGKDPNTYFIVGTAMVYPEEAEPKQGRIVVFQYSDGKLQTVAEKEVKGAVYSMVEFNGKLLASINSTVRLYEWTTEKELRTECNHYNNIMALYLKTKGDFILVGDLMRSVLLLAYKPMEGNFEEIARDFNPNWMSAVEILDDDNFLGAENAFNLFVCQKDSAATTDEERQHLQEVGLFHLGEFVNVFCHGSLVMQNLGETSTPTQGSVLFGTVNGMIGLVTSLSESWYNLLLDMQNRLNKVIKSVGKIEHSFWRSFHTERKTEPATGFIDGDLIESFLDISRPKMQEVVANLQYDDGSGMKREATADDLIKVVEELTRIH

Compound	Dmax	DC50
CCOc1cc(-c2ccc(N3CCC(CN4CCN(C(=O)CCCCCCN5CCN(c6ccc7c(c6)CN(C6CCC(=O)NC6=O)C7=O)CC5)CC4)CC3)nc2)c2c(C#N)cnn2c1 (stereo not shown) [Example 125, 4-[6-(4-{[4-(7-{4-[2-(2,6-dioxopiperidin-3-yl)-1-oxo-2,3-dihydro-1H-isoindol-5-yl]piperazin-1-yl}heptanoyl)piperazin-1-yl]methyl}piperidin-1-yl)pyridin-3-yl]-6-ethoxypyrazolo[1,5-a]pyridine-3-carbonitrile]	> 90%	10 to 100 nM
CCOc1cc(-c2ccc(N3CCC(CN4CCN(C(=O)CCN5CCC(c6ccc7c(c6)C(=O)N(C6CCC(=O)NC6=O)C7)CC5)CC4)CC3)nc2)c2c(C#N)cnn2c1 (stereo not shown) [Example 126, 4-[6-(4-{[4-(3-{4-[2-(2,6-dioxopiperidin-3-yl)-3-oxo-2,3-dihydro-1H-isoindol-5-yl]piperidin-1-yl}propanoyl)piperazin-1-yl]methyl}piperidin-1-yl)pyridin-3-yl]-6-ethoxypyrazolo[1,5-a]pyridine-3-carbonitrile]	60 to 90%	100 to 2000 nM
CCOc1cc(-c2ccc(N3CCC(C)(CN4CCN(C(=O)CCCCCCN5CCN(c6ccc7c(c6)CN(C6CCC(=O)NC6=O)C7=O)CC5)CC4)CC3)nc2)c2c(C#N)cnn2c1 (stereo not shown) [Example 128, 4-[6-(4-{[4-(7-{4-[2-(2,6-dioxopiperidin-3-yl)-1-oxo-2,3-dihydro-1H-isoindol-5-yl]piperazin-1-yl}heptanoyl)piperazin-1-yl]methyl}-4-methylpiperidin-1-yl)pyridin-3-yl]-6-ethoxypyrazolo[1,5-a]pyridine-3-carbonitrile]	60 to 90%	100 to 2000 nM
CCOc1cc(-c2ccc(N3CCC(C)(CN4CCN(C(=O)CCN5CCC(c6ccc7c(c6)CN(C6CCC(=O)NC6=O)C7=O)CC5)CC4)CC3)nc2)c2c(C#N)cnn2c1 (stereo not shown) [Example 129, 4-[6-(4-{[4-(3-{4-[2-(2,6-dioxopiperidin-3-yl)-1-oxo-2,3-dihydro-1H-isoindol-5-yl]piperidin-1-yl}propanoyl)piperazin-1-yl]methyl}-4-methylpiperidin-1-yl)pyridin-3-yl]-6-ethoxypyrazolo[1,5-a]pyridine-3-carbonitrile]	60 to 90%	100 to 2000 nM
CCOc1cc(-c2ccc(N3CCC(CN(C)C(=O)CCCCN4CCC(c5ccc6c(c5)CN(C5CCC(=O)NC5=O)C6=O)CC4)(NC(=O)c4cc(F)ccc4F)CC3)nc2)c2c(C#N)cnn2c1 (stereo not shown) [Example 139, N-[1-(5-{3-cyano-6-ethoxypyrazolo[1,5-a]pyridin-4-yl}pyridin-2-yl)-4-[(5-{4-[2-(2,6-dioxopiperidin-3-yl)-1-oxo-2,3-dihydro-1H-isoindol-5-yl]piperidin-1-yl}-N-methylpentanamido)methyl]piperidin-4-yl]-2,5-difluorobenzamide]	> 90%	10 to 100 nM
CCOc1cc(-c2ccc(N3CCC(CN(C)C(=O)CCCCCCN4CCC(c5ccc6c(c5)CN(C5CCC(=O)NC5=O)C6=O)CC4)(NC(=O)c4cc(F)ccc4F)CC3)nc2)c2c(C#N)cnn2c1 (stereo not shown) [Example 140, N-[1-(5-{3-cyano-6-ethoxypyrazolo[1,5-a]pyridin-4-yl}pyridin-2-yl)-4-[(7-{4-[2-(2,6-dioxopiperidin-3-yl)-1-oxo-2,3-dihydro-1H-isoindol-5-yl]piperidin-1-yl}-N-methylheptanamido)methyl]piperidin-4-yl]-2,5-difluorobenzamide]	> 90%	2 to 10 nM
CCOc1cc(-c2ccc(N3CCC(CN(C)C(=O)CCCCCCN4CCN(c5ccc6c(c5)C(=O)N(C5CCC(=O)NC5=O)C6)CC4)(NC(=O)c4cc(F)ccc4F)CC3)nc2)c2c(C#N)cnn2c1 (stereo not shown) [Example 143, N-[1-(5-{3-cyano-6-ethoxypyrazolo[1,5-a]pyridin-4-yl}pyridin-2-yl)-4-[(7-{4-[2-(2,6-dioxopiperidin-3-yl)-3-oxo-2,3-dihydro-1H-isoindol-5-yl]piperazin-1-yl}-N-methylheptanamido)methyl]piperidin-4-yl]-2,5-difluorobenzamide]	> 90%	2 to 10 nM
CCOc1cc(-c2ccc(N3CCC(CN(C)C(=O)CCCCN4CCC(c5ccc6c(c5)C(=O)N(C5CCC(=O)NC5=O)C6)CC4)(NC(=O)c4cc(F)ccc4F)CC3)nc2)c2c(C#N)cnn2c1 (stereo not shown) [Example 145, N-[1-(5-{3-cyano-6-ethoxypyrazolo[1,5-a]pyridin-4-yl}pyridin-2-yl)-4-[(5-{4-[2-(2,6-dioxopiperidin-3-yl)-3-oxo-2,3-dihydro-1H-isoindol-5-yl]piperidin-1-yl}-N-methylpentanamido)methyl]piperidin-4-yl]-2,5-difluorobenzamide]	60 to 90%	2 to 10 nM
CCOc1cc(-c2ccc(N3CCC(CN(C)C(=O)CCCCCCN4CCC(c5ccc6c(c5)C(=O)N(C5CCC(=O)NC5=O)C6)CC4)(NC(=O)c4cc(F)ccc4F)CC3)nc2)c2c(C#N)cnn2c1 (stereo not shown) [Example 146, N-[1-(5-{3-cyano-6-ethoxypyrazolo[1,5-a]pyridin-4-yl}pyridin-2-yl)-4-[(7-{4-[2-(2,6-dioxopiperidin-3-yl)-3-oxo-2,3-dihydro-1H-isoindol-5-yl]piperidin-1-yl}-N-methylheptanamido)methyl]piperidin-4-yl]-2,5-difluorobenzamide]	> 90%	10 to 100 nM
CCOc1cc(-c2ccc(N3CCC(C)(CN4CCN(C(=O)CCN5CCC(c6ccc7c(c6)C(=O)N(C6CCC(=O)NC6=O)C7)CC5)CC4)CC3)nc2)c2c(C#N)cnn2c1 (stereo not shown) [Example 147, 4-[6-(4-{[4-(3-{4-[2-(2,6-dioxopiperidin-3-yl)-3-oxo-2,3-dihydro-1H-isoindol-5-yl]piperidin-1-yl}propanoyl)piperazin-1-yl]methyl}-4-methylpiperidin-1-yl)pyridin-3-yl]-6-ethoxypyrazolo[1,5-a]pyridine-3-carbonitrile]	60 to 90%	10 to 100 nM
CCOc1cc(-c2ccc(N3CCC(NC(=O)c4cc(F)ccc4F)(C(=O)NCCCCCCNc4ccc(N5CCC(=O)NC5=O)cc4)CC3)nc2)c2c(C#N)cnn2c1 [Example 148, 1-(5-{3-cyano-6-ethoxypyrazolo[1,5-a]pyridin-4-yl}pyridin-2-yl)-4-(2,5-difluorobenzamido)-N-(6-{[4-(2,4-dioxo-1,3-diazinan-1-yl)phenyl]amino}hexyl)piperidine-4-carboxamide]	60 to 90%	2 to 10 nM

Other lines, results leading:

Dmax	DC50	Compound
> 90%	< 2 nM	CCOc1cc(-c2ccc(N3CCC(CN4CCN(C(=O)CCN5CC(Oc6ccc7c(c6)CN(C6CCC(=O)NC6=O)C7=O)C5)CC4)(NC(=O)c4cc(F)ccc4F)CC3)nc2)c2c(C#N)cnn2c1 (stereo not shown) [Example 120, N-[1-(5-{3-cyano-6-ethoxypyrazolo[1,5-a]pyridin-4-yl}pyridin-2-yl)-4-({4-[3-(3-{[2-(2,6-dioxopiperidin-3-yl)-1-oxo-2,3-dihydro-1H-isoindol-5-yl]oxy}azetidin-1-yl)propanoyl]piperazin-1-yl}methyl)piperidin-4-yl]-2,5-difluorobenzamide]
> 90%	2 to 10 nM	CCOc1cc(-c2ccc(N3CCC(CN4CCC5(CCC(CC(=O)N6CCC(c7ccc8c(c7)CN(C7CCC(=O)NC7=O)C8=O)CC6)CC5)CC4)(NC(=O)c4cc(F)ccc4F)CC3)nc2)c2c(C#N)cnn2c1 (stereo not shown) [Example 122, N-[1-(5-{3-cyano-6-ethoxypyrazolo[1,5-a]pyridin-4-yl}pyridin-2-yl)-4-{[9-(2-{4-[2-(2,6-dioxopiperidin-3-yl)-1-oxo-2,3-dihydro-1H-isoindol-5-yl]piperidin-1-yl}-2-oxoethyl)-3-azaspiro[5.5]undecan-3-yl]methyl}piperidin-4-yl]-2,5-difluorobenzamide]
> 90%	2 to 10 nM	CCOc1cc(-c2ccc(N3CCC(CN4CCC5(CCC(CC(=O)N6CCN(c7ccc8c(c7)C(=O)N(C7CCC(=O)NC7=O)C8)CC6)CC5)CC4)(NC(=O)c4cc(F)ccc4F)CC3)nc2)c2c(C#N)cnn2c1 (stereo not shown) [Example 123, N-[1-(5-{3-cyano-6-ethoxypyrazolo[1,5-a]pyridin-4-yl}pyridin-2-yl)-4-{[9-(2-{4-[2-(2,6-dioxopiperidin-3-yl)-3-oxo-2,3-dihydro-1H-isoindol-5-yl]piperazin-1-yl}-2-oxoethyl)-3-azaspiro[5.5]undecan-3-yl]methyl}piperidin-4-yl]-2,5-difluorobenzamide]
> 90%	< 2 nM	CCOc1cc(-c2ccc(N3CCC(CN4CCC5(CCC(CC(=O)N6CCN(c7ccc8c(c7)CN(C7CCC(=O)NC7=O)C8=O)CC6)CC5)CC4)(NC(=O)c4cc(F)ccc4F)CC3)nc2)c2c(C#N)cnn2c1 (stereo not shown) [Example 124, N-[1-(5-{3-cyano-6-ethoxypyrazolo[1,5-a]pyridin-4-yl}pyridin-2-yl)-4-{[9-(2-{4-[2-(2,6-dioxopiperidin-3-yl)-1-oxo-2,3-dihydro-1H-isoindol-5-yl]piperazin-1-yl}-2-oxoethyl)-3-azaspiro[5.5]undecan-3-yl]methyl}piperidin-4-yl]-2,5-difluorobenzamide]
> 90%	2 to 10 nM	CCOc1cc(-c2ccc(N3CCC(CN(C)C(=O)CCCCCCN4CCN(c5ccc6c(c5)CN(C5CCC(=O)NC5=O)C6=O)CC4)(NC(=O)c4cc(F)ccc4F)CC3)nc2)c2c(C#N)cnn2c1 (stereo not shown) [Example 137, N-[1-(5-{3-cyano-6-ethoxypyrazolo[1,5-a]pyridin-4-yl}pyridin-2-yl)-4-[(7-{4-[2-(2,6-dioxopiperidin-3-yl)-1-oxo-2,3-dihydro-1H-isoindol-5-yl]piperazin-1-yl}-N-methylheptanamido)methyl]piperidin-4-yl]-2,5-difluorobenzamide]
> 90%	< 2 nM	CCOc1cc(-c2ccc(N3CCC(NC(=O)c4cc(F)ccc4F)(C(=O)NCCCCCCNc4cccc5c(N6CCC(=O)NC6=O)nn(C)c45)CC3)nc2)c2c(C#N)cnn2c1 [Example 149, 1-(5-{3-cyano-6-ethoxypyrazolo[1,5-a]pyridin-4-yl}pyridin-2-yl)-4-(2,5-difluorobenzamido)-N-(6-{[3-(2,4-dioxo-1,3-diazinan-1-yl)-1-methyl-1H-indazol-7-yl]amino}hexyl)piperidine-4-carboxamide]
